The subject of data set [1] is adenosine-sensitive receptors of thrombocytes. The experiment in a line: ADP-induced aggregation of thrombocytes in vitro (Born method). It counts as cell-based, rabbit. As to conditions: 3 min incubation, ADP 10^−5 M. How it is done: The compounds according to the invention were studied for the effect of aggregation of thrombocytes induced by a preliminary introduction of a solution of an aggregation inductor with a competing introduction of the compounds according to the invention.
The aggregation of thrombocytes was studied by the Born method based on determination of the changes in the optical density of plasma enriched with thrombocytes after its incubation with an aggregation inductor.
Adenozinediphosphoric acid (ADP) was selected as an aggregation inductor, which in fact is an aggregation generator. Use was made of a sample (registration number 885) of the Sigma Diagnostics Company (USA) in final concentration of 10^−5 M.
The experiments were carried out on male rabbits of the “Chinchilla” breed having a mass of 2.7±0.3 kg. 18-24 hours prior to the experiment they were deprived of feed while preserving free access to water.
To obtain plasma enriched with thrombocytes, blood was taken from a cut of a marginal vein of the rabbit ear, the sample was stabilized with 3.8% of sodium citrate solution in a ratio of 9:1 and centrifuged at 200 g (1000 rev/min) for 10 minutes. The top supernatant layer enriched with thrombocytes was transferred by an automatic dropper into a silicone test tube and kept at 37° C. The plasma enriched with thrombocytes contained, on the average, […]. If this content exceeded the specified 3×10^8 blood platelets in 1 liter, this sample was diluted to the necessary concentration with plasma deprived of thrombocytes, which was obtained by centrifuging blood at 650 g during 10 minutes.
The measurements of the optical density of the samples were made on two-channel aggregometer of the “Chronolog” Company (USA). A flask containing 490 mkl of plasma rich with thrombocytes was placed in a device, into which a magnetic agitator covered with Teflon was lowered. The index of maximum amplitude of aggregation (MA) in percent of a fall of the plasma optical density under effect of the aggregation inductor was recorded. The control index MA of plasma was compared with the MA of plasma incubated for 3 minutes with different concentrations of the compounds: from 10^−3 to 10^−7 in vitro experiments or with plasma obtained 15, 30, 60 and 120 minutes after intravenous administration of different doses of the compounds in vivo experiments.
The process of aggregation of thrombocytes was recorded with the help of a computer; on the monitor screen the there were depicted curves reflecting changes of the optical density of the plasma enriched which was taken as a standard 100% compared to the optical density of the non-thrombocyte plasma taken for 0% content of thrombocytes.
Under in vitro conditions a flask was filled with blood plasma enriched with thrombocytes, to which an aggregation inductor ADP was added at a concentration of 10^−5 M, incubated for 3 minutes, and then the compounds according to the invention were introduced directly into the flask. Their action by aggregation of thrombocytes was studied after 3-minute incubation in a wide range of concentrations from 10^−3 to 10^−7 M to minimum concentration of 10^−7 M not inducing no effect of suppressing the aggregation.

Data set [2] in a line: Polarographic study of electrochemical reduction (electrochemical activity). It counts as physicochemical. The following applies: for i, mkA (polarographic wave current) / −E1/2, V (half-wave potential vs SCE): 37° C., forward trace, average for the group; for i, mkA (polarographic wave current): 9·10^−4 M. As to the method:
The study was carried out on a general-purpose polarograph PU-1 with a two-coordinate recorder of the “LKD” type using a three-electrode thermostatically controlled polarographic cell and mercury dripping electrode (MDE) with forced separation of the drop and a dropping period of 0.5 second. A platinum wire was used as an auxiliary electrode and a saturated calomel electrode (SCE) was used as a control electrode.
2.0% solutions of sodium chloride having pH 7.0, 7.2, 7.4, 7.6 were used as a background; the pH values of the background solution were corrected by a solution of sodium hydroxide. The polarographic cell was filled with 5.0 ml of the background solution and for 5 minutes was purged with nitrogen for removing the dissolved oxygen. Then 0.5 ml of solution of the studied substance was added to the background solution, and the polarogram was recorded as a polarographic wave. The concentration of the compounds in the polarographic cell was 9·10^−4 M.
The pH was measured on the pH-meter with an accuracy of ±0.05 pH units. The polarographic measurements were carried out at a temperature of 37° C. The recording of polarograms of the investigated materials was effected under conditions of DC current at a scanning rate of the potential 10.0 mV/s with a active scanning stroke from a potential 0 to −0.5 V and sweep retrace from a −0.5 V to 0. The electric-current sensitivity was 5.0 mkA. The scale by the coordinate of the potentials was 50.0 mV/cm. The values of potentials of the half-wave E1/2 of the investigated materials are given with respect to the SCE potential.
The polarogram parameters such as a limiting current ilim and E1/2 were determined by the graphic method. The number of electrons participating in the reaction was calculated on the basis of the analysis of the polarographic wave using the Geirovsky-Ilkovich equation.

In another data set the test system is thymus. Description: Morphine abstinence model: thymus condition. It counts as in vivo, rats. The following applies: morphine alone. How it is done:
The effect of the compounds according to the invention on the condition of the thymus of the rats was also investigated: a control group, an experimental group of morphinized animals and an experimental group of animals were first morphinized and then injected with the compounds according to the invention. The experiment was carried out similarly to that described above.

Data set [3] deals with synthase of nitrogen oxide (NOC). The experiment in a line: Morphine abstinence model: activity of synthase of nitrogen oxide (radiometric, [3H]L-citrulline). It counts as in vivo, rats Wistar. The following applies: morphine alone.

Regarding `O=c1[nH]n([C@@H]2O[C@H](CO)[C@@H](O)[C@H]2O)c(=O)c2ccccc12.[Na]` [Compound 9, sodium salt of 2-(β-D-ribofuranosile)benzo[d]-3H-pyridazine-1,4-dione], the entries for the “MA - fall of optical density of plasma, % to the standard” value (shortened to “MA - fall … % to the standard”) in data set [1] (10^−3 M), in data set [1] (10^−4 M) and in data set [1] (10^−5 M) were 47.3 ± 2.0 %, 53.1 ± 1.8 % and 41.4 ± 3.4 %, respectively. Moreover, the “MA - drop of optical density, % compared to control” value (“MA - drop of optical density, %” for short) in data set [1] (10^−6 M) turned out to be 49.4 ± 3.2%; in data set [1] (10^−7 M), 51.2 ± 1.7%.

For `Nc1cnc2c(=O)[nH][nH]c(=O)c2n1.[Na]` [Compound 28, sodium salt of 2-amino-pyrazine[2,3-d]-6H-pyridazine-5,8-dione], the “MA - fall … % to the standard” value turned out to be 49.7 ± 2.2 % in data set [1] (10^−3 M), 48.9 ± 2.4 % in data set [1] (10^−4 M) and 44.2 ± 2.7 % in data set [1] (10^−5 M). For the same compound, the “MA - drop of optical density, %” value in data set [1] (10^−7 M) is given as 50.4 ± 3.0%.

With “sodium salt of 5-amino-2-(CP(β-D-ribofuranosile)benzo[d]-3H-pyridazine-1,4-dione [Compound 10]”, the “MA - fall … % to the standard” value in data set [1] (10^−3 M) was 46.2 ± 2.7 %; in data set [1] (10^−4 M), 48.7 ± 2.4 %; in data set [1] (10^−5 M), 40.2 ± 4.0 %. Also, the “MA - drop of optical density, %” value in data set [1] (10^−6 M) was found to be 48.4 ± 2.4%; in data set [1] (10^−7 M), 49.8 ± 2.0%. Moreover, in data set [2] (calculated with the Geirovsky-Ilkovich equation), the “number of electrons participating in the reduction” value is given as 4.09. Also, the “i, mkA (polarographic wave current)” value in data set [2] (pH 7.0) was found to be 0.23 ± 0.03 mkA; in data set [2] (pH 7.2), 0.30 ± 0.01 mkA; in data set [2] (pH 7.4), 0.29 ± 0.02 mkA; in data set [2] (pH 7.6), 0.31 ± 0.02 mkA. For the same compound, the “−E1/2, V (half-wave potential vs SCE)” value amounted to 0.092 ± 0.02 V in data set [2] (pH 7.0), 0.09 ± 0.01 V in data set [2] (pH 7.2), 0.092 ± 0.02 V in data set [2] (pH 7.4) and 0.09 ± 0.01 V in data set [2] (pH 7.6). For the same compound, the “half-wave potential more positive on reverse stroke than on forward stroke” value in data set [2] (reverse stroke vs forward stroke) turned out to be 30.0 mV.

With `O=c1[nH]n([C@@H]2O[C@H](CO)[C@@H](O)[C@H]2O)c(=O)c2nccc(O)c12.[Na].[Na]` [Compound 4, disodium salt of 4-hydroxy-7-(βD-ribofuranosile)pyrido[2,3-d]-6H-pyridazine-5,8-dione], the “MA - fall … % to the standard” value in data set [1] (10^−3 M) was found to be 49.2 ± 2.3 %; in data set [1] (10^−4 M) it was 50.2 ± 2.0 %; in data set [1] (10^−5 M), 46.2 ± 3.1 %. Besides, the “MA - drop of optical density, %” value was 50.6 ± 3.1% in data set [1] (10^−6 M) and 49.9 ± 3.4% in data set [1] (10^−7 M).

Consider `CN1CC[C@]23c4c5ccc(O)c4O[C@H]2[C@@H](O)C=C[C@H]3[C@H]1C5` [Morphine, reference compound], for which, in the data set with thymus, the “Nitrites, thymus Supernatant, Administration of morphine” value is 0.511 ± 0.05 nmol/mg of protein and the “Thymus mass, Administration of morphine” value is on record as 145 ± 9 mg. Besides, in data set [3], the “activity of the calcium-dependent form NOC in the liver” value was “rise of activity of the calcium-dependent form NOC” and the “activity of the calcium-independent form NOC in the liver” value was “decrease of activity of the calcium-independent form NOC”.

Turning to `Nc1ncnc2c(=O)n([C@@H]3O[C@H](CO)[C@@H](O)[C@H]3O)[nH]c(=O)c12.[Na]` [Compound 31, sodium salt of 4-amino-7-(β-D-ribofuranosile)pyrimido[4,5-d]-6H-pyridazine-5,8-dione], the “MA - fall … % to the standard” value in data set [1] (10^−3 M) is reported as 44.9 ± 2.3 %; in data set [1] (10^−4 M) it was 46.7 ± 2.2 %; in data set [1] (10^−5 M) it was 39.9 ± 2.1 %. For the same compound, the “MA - drop of optical density, %” value is given as 47.5 ± 1.7 % in data set [1] (10^−6 M) and 49.5 ± 1.2% in data set [1] (10^−7 M).

(Values after patent US20070166547A1, “Use of a layer consisting of hydrophobic linear, or two-dimensional polycyclic aromatics as a barrier layer or an encapsulation and electric components constructed with a layer of this type and comprising organic polymers” (priority 2003, published 2007).)
